Source: patent US9546129B2, “DTPA prodrugs, compositions thereof, and methods of using the same” (priority 2012, dated 2017)

Tests used:
[1] = comparison values; cited from earlier work
^241Am contaminated rats [2] = experiment: Once vs twice daily dosing ^241Am decorporation study in rats; type: in vivo, Sprague Dawley rat; conditions: Zn-DTPA 13.3 mg/kg intravenous daily x5, male rats, seven days after IM ^241Am
Experimental: The animal study was conducted according to a protocol approved by The University of North Carolina at Chapel Hill Institutional Animal Care and Use Committee. Sixteen male Sprague Dawley rats were contaminated with ^241Am(NO3)3 (0.25 μCi) by intramuscular injection (0.1 mL, 0.1 M HNO3) into the right hind leg, under isoflurane anesthesia. Immediately after injection, body weights were recorded (Day 0 weight) and animals placed in individual metabolic cages. The 16 rats were assigned to four groups; untreated control, 5 daily oral gavage doses of 600 mg/kg C2E2 once daily, 5 days of oral gavage treatment of 300 mg/kg C2E2 twice daily or 5 daily intravenous doses of Zn-DTPA solution (13.3 mg/kg) via a jugular vein catheter. The C2E2 was from Lot 050 obtained using Method 2. The C2E2 dosing solution utilized was a 10% w/w solution in water. […] Excreted urine and feces were collected at 2, 4, 8, 10, 12, 14, 18, 20 and 24 hours after the first dose and daily for the remainder of the study. The samples were transferred to 20 mL scintillation vials, weighed and placed in a gamma counter (Wizard2 2480, Perkin Elmer) for detection of ^241Am gamma activity. In addition, following necropsy, selected tissues were removed, weighed and placed in a gamma counter (Wizard2 2480, Perkin Elmer) for detection of ^241Am gamma activity. The total amount of ^241Am administered to the animals was determined by quantifying the 59.7 keV photons emitted by ^241Am in duplicate aliquots (100 μL) of the injection solution using a gamma counter (wizard series, Perkin-Elmer). A counting window from 40-80 keV and a 60-second counting time were used for acquisition and each reading was corrected for background at acquisition. All experimental tissues and samples were counted using the same gamma counter and protocol. For all the samples, ^241Am content was expressed as a percentage of the initial dose. The femur from the leg opposite to the injection site was scaled by a factor of 20 to estimate total skeletal ^241Am burden.

[3] = Body weights and clinical observations in the rat single dose decorporation study; type: in vivo, Sprague Dawley rat; conditions: iv Ca-DTPA 14 mg/kg, ad libitum; for Mean body weight: in g (unit assumed)
Text: Each rat was weighed at contamination (Day 0) and the terminal body weight (Day 7) was taken at necropsy.

[4] = Stability study in water (pH and precipitation of solubility samples); type: physicochemical; conditions: for Precipitation on storage (observation): room temperature, 4° C., −20° C.
Experimental: Method 2 was used to prepare the C2E2 for the dosing formulations. Specifically, Lots 050 and 005-2 were prepared using Method 2, whereas the Reference standard and MTD Lot were prepared using Method 1. For the dosing formulations, de-ionized water (DI water tap in room 18/19) was used with the C2E2 prepared using Method 2. The dosing formulations were compared with C2E2 formulations prepared using Milli-Q water. The pH of each sample was recorded and the values are listed below in Table 2.
In order to re-create the unusual solutions, 1-mL samples of C2E2 (Lots 005-2 and 050; MTD Lot; and Reference std) were made at concentrations of 100 mg/mL in Milli-Q water. A set of samples was stored at room temperature, in the refrigerator (4° C.), and in the −20° C. freezer. […] Storage at 4° C. exacerbates the precipitation of Lot 050. After 8 days, both the Reference Standard and Lot 050 have significant amounts of solid detected at 4° C. and room temperature and crystals have started to form. […] While not wishing to be bound to any particular theory, this is likely because more impurities increase the solubility.

[5] = Polymorph stability (DSC, competitive ripening, storage); type: physicochemical; conditions: higher melting point, lower solubility
Experimental: Samples of C2E2 (˜5 mg) were crimped and evaluated by DSC over a range of 25° C. to 320° C. with a heating rate of 10.00° C./min. A sample was also cycled three times from 25 to 150° C. with a heating rate of 10° C./min and a cooling rate of 5° C./min. Both the MTD Lot and the Reference Standard show a melting point near 120° C. Lot 050 has a melting point of about 140° C.
50 mg each of Lot 050 and the Reference standard were combined in 500 μL of water and stirred at room temperature overnight. After stirring, the remaining solid was filtered from the liquid, allowed to dry and analyzed by DSC.

^241Am contaminated rats [6] = experiment: C2E2 single dose ^241Am decorporation in rats (IM contamination); type: in vivo, Sprague Dawley rat; conditions: DTPA 14 mg/kg IV, ad lib; single dose 24 h after IM ^241Am, 7 days, female rats
Experimental: This study was to assess the efficacy of a single oral gavage dose of C2E2 in ^241Am contaminated rats. A 200 μL aliquot was withdrawn from a stock solution of ^241Am nitrate (0.1 mCi in 5 mL 1 M HNO3), evaporated to dryness, dissolved in concentrated HNO3 (15 M, 5 mL) then evaporated to dryness and dissolved in dilute HNO3 (0.1 M, 8 mL) to form the injection solution. Groups of 4 female Sprague-Dawley rats were contaminated with 250 nCi of ^241Am nitrate by IM injection ([…]) then were administered single doses of C2E2 by gavage at 200, 600, or 1000 mg/kg under ad lib feeding conditions utilizing a 10% w/w solution in sterile water (dose volumes were 2, 6, and 10 mL/kg, for the 200, 600, and 1000 mg/kg doses, respectively). For the fasted component of the study, the animals were fasted 24 hours before treatment then for 2 hours post drug administration. Control groups with ad lib access to food and water were either untreated or administered an IV dose of the calcium salt of DTPA (Ca-DTPA) at 14 mg/kg (target dose volume of 0.7 mL/kg and concentration of 20 mg/mL). Treatment was administered 1 day after contamination. All animals were euthanized 7 days after contamination and the following tissues were collected: liver, both kidneys, both femurs as well as the ipsilateral and the contralateral hind leg muscle tissue and the pelt from the injection site. Urine and feces were collected from the time of contamination through euthanasia. Cage washings were also collected at the end of the study and considered part of total urine collection. Two aliquots (100 μL) of the injection solution were removed and ^241Am gamma activity was determined using radiomatic detection. The average of these standards is the injected dose used for all animals. All tissues and samples were counted in a similar manner. Americium content was expressed as a percentage of the injected dose. Overall recovery of radioactivity across all groups in this study was approximately 90%. […] The primary route by which both DTPA and C2E2 enhanced elimination of ^241Am occurred was by urinary clearance. […] Fecal clearance of ^241Am was not altered by feeding status, an observation that is consistent with the similar liver burden between the two groups at the end of the study. […] As with DTPA, enhanced decorporation by C2E2 occurred through enhanced urinary clearance.
Male and female Sprague Dawley rats (n=4/gender/dose) were administered single oral doses of diethylenetriaminepentaacetic acid diethyl ester (C2E2) by gavage 24 hours after intramuscular contamination with ^241Am(NO3)3 (250 nCi) under ad libitum and fasted conditions. Animals received single oral nominal doses of 200, 600, or 1000 mg/kg C2E2. Untreated animals and animals treated with an intravenous dose of Ca-DTPA ([…]) 24 hours after contamination served as controls; only ad libitum conditions were used for control animals. Total radionuclide decorporation and radionuclide tissue burden were evaluated seven days after contamination.
Male and female Sprague Dawley rats were contaminated with ^241Am(NO3)3 (0.25 μCi) by intramuscular injection (0.1 mL, 0.1 M HNO3) into the right hind leg, under isoflurane anesthesia. Immediately after injection, body weights were recorded (Day 0 weight) and animals were placed in individual metabolic cages.
Approximately eight hours after contamination—and 16 hours before test article administration—rats assigned to the Fasted groups had access to food restricted by removing the food chamber from their metabolic cages and collecting all loose chow from their housing chambers. Food chambers were replaced 1 hour after oral gavage treatment, restoring access to food. At all other times all animals had ad libitum access to food.
Male and female Sprague-Dawley rats assigned to test groups each received a single oral gavage dose of 0, 200, 600, or 1000 mg/kg of C2E2 utilizing a 10% w/w solution in water 24 hours after contamination. […]

[7] = Protonation constants by potentiometric titration; type: physicochemical; conditions: 5 mM ligand in 0.15 M KCl
Experimental: The protonation constants for C2E2 were determined by preparing a 5 mM solution of free ligand in 0.15 M KCl. The constants were calculated from three replicates, with each experiment consisting of a titration with acid, followed by a titration with base. After each addition of titrant, a 30 second equilibration time passed before pH measurement with a Seven Easy pH meter and (Ag/AgCl reference) glass electrode (Metler Tolledo). At the end of the titrations, the presence of C2E2 was confirmed by HPLC-CAD. Evaluation of the titration curve for C2E2 (FIG. 31) identified 6 pKa values that correspond with the three tertiary amines and three carboxylic acids. The values were determined by refinement using […] software. The pKa values determined for C2E2 are consistent with DTPA analogues previously investigated for use as MRI contrast agents with two carboxylic acids are functionalized such as DTPA-BMA and DTPA-BBA (Rizkalla, E. N., et al., Inorganic Chemistry, 32, 582-586, (1993) and Geraldes C. F., et al., Journal of the Chemical Society-Dalton Transactions, 327-335 (1995)).

## O=C(O)CN(CCN(CC(=O)O)CC(=O)O)CC(=O)O [EDTA]
[1]
  Stability of the gadolinium complex, log K: 17.0

## O=C([O-])CN(CCN(CC(=O)[O-])CC(=O)[O-])CCN(CC(=O)[O-])CC(=O)[O-].[Na+].[Na+].[Na+].[Zn+2] [i.v. Control, reference compound]
^241Am contaminated rats [2]
  Total Decorporation: 54.0 ± 3.9 % of injected dose

## O=C([O-])CN(CCN(CC(=O)[O-])CC(=O)[O-])CCN(CC(=O)[O-])CC(=O)[O-].[Ca+2].[Na+].[Na+].[Na+] [Ca-DTPA, reference compound]
[3]; Female
  Mean Percentage Body Weight Change: −0.1 ± 1.9%
[3]; Male
  Mean Percentage Body Weight Change: 4.5 ± 6.1%
[3]; female rats, Day 0
  Mean body weight: 273.6 ± 7.7
[3]; female rats, Day 7 (terminal)
  Mean body weight: 273.3 ± 11.2
[3]; male rats, Day 0
  Mean body weight: 301.0 ± 4.0
[3]; male rats, Day 7 (terminal)
  Mean body weight: 314.6 ± 20.4

## CCOC(=O)CN(CCN(CCN(CC(=O)O)CC(=O)OCC)CC(=O)O)CC(=O)O [Lot 050, 6,9-bis(carboxymethyl)-3-(2-ethoxy-2-oxoethyl)-11-oxo-12-oxa-3,6,9-triazatetradecan-1-oic acid]
[4]; 20 mg/mL
  pH of formulations prepared using de-ionized water: 3.04
[4]; 60 mg/mL
  pH of formulations prepared using de-ionized water: 2.93
[4]; 100 mg/mL
  pH of formulations prepared using Milli-Q water: 2.60
  pH of formulations prepared using de-ionized water: 2.93
[4]; 100 mg/mL in Milli-Q water
  Precipitation on storage (observation): begins to come out of solution after three days
[5]
  Relative stability of polymorph: most stable

## CCOC(=O)CN(CCN(CCN(CC(=O)O)CC(=O)OCC)CC(=O)O)CC(=O)O [Lot 005-2, 6,9-bis(carboxymethyl)-3-(2-ethoxy-2-oxoethyl)-11-oxo-12-oxa-3,6,9-triazatetradecan-1-oic acid]
[4]; 100 mg/mL
  pH of formulations prepared using Milli-Q water: 2.54
[4]; 100 mg/mL in Milli-Q water
  Precipitation on storage (observation): do not come out of solution

## diethylenetriamine pentaacetic acid [DTPA]
[1]
  Stability of the gadolinium complex, log K: 22.5
^241Am contaminated rats [6]
  Cage Wash ^241Am: 3.6 ± 0.8%
  Feces ^241Am: 10.3 ± 1.7%
  Liver burden: 12.3 ± 1.2 % injected
  Total Decorporation: 36.1 ± 4.6 % injected
  Urine ^241Am: 22.1 ± 2.6%

## CCOC(=O)CN(CCN(CCN(CC(=O)O)CC(=O)O)CC(=O)O)CC(=O)O [C2E1]
[7]
  PKa2: 2.99 ± 0.05
  pKa1: 6.35
  pKa3: 1.72 ± 1.5
  pKa4: 1.18 ± 0.45
  pKa5: <1.5
  pKa6: <1.5

## CCOC(=O)CN(CCN(CCN(CC(=O)O)CC(=O)OCC)CC(=O)O)CC(=O)O [Reference Standard, 6,9-bis(carboxymethyl)-3-(2-ethoxy-2-oxoethyl)-11-oxo-12-oxa-3,6,9-triazatetradecan-1-oic acid]
[4]; 100 mg/mL in Milli-Q water, regardless of storage temperature
  Time at which material starts to precipitate: ≤ 24 h
[4]; 100 mg/mL, listed as Purified C2E2 (Reference std)
  pH of formulations prepared using Milli-Q water: 2.43

## CCOC(=O)CN(CCN(CCN(CC(=O)O)CC(=O)OCC)CC(=O)O)CC(=O)O [MTD Lot, 6,9-bis(carboxymethyl)-3-(2-ethoxy-2-oxoethyl)-11-oxo-12-oxa-3,6,9-triazatetradecan-1-oic acid]
[4]; 100 mg/mL
  pH of formulations prepared using Milli-Q water: 2.35
[4]; 100 mg/mL in Milli-Q water
  Precipitation on storage (observation): do not come out of solution
